Laboratory results from patent publication US4894385A, “Imidazole derivatives as inhibitors of TXA2 synthesis” (Sankyo Company Limited, priority 1985, dated 1990).
Structures can show the parent of a compound that is named as a salt.

Experiments:
synthesis of TXA2 = conditions: in words; Prostaglandins, 13, 611 (1977); cited from earlier work
TXA2 synthetase [1] = biological target: T1, TXA2 synthetase (Oryctolagus cuniculus, UniProt G1TAZ9); test: Inhibition of Thromboxane A2 Synthetase (rabbit platelet microsomes); type: biochemical; conditions: 0.1 mM [14C] arachidonic acid, 1 minute, 22° C., compounds as hydrochloride except No. 40 (free base)
T1 construct: The platelet microsome fraction was separated from rabbit and from human blood; from tissue; host or cells: rabbit blood platelets, microsome fraction
T1 sequence (G1TAZ9 1-530): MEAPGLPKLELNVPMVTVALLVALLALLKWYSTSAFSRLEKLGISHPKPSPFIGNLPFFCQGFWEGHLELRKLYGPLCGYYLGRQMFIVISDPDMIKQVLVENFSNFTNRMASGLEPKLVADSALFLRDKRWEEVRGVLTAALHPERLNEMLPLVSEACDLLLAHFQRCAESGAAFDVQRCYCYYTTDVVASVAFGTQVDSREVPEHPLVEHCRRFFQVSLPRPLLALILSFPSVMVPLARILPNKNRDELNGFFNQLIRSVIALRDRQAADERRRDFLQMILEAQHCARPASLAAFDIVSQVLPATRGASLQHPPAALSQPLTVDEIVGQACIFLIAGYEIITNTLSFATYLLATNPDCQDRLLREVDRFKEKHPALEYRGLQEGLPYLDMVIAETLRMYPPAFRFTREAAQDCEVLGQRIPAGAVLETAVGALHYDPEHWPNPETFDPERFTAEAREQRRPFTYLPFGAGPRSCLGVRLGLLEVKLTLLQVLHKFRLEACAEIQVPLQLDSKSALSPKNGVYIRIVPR
Method: The platelet microsome fraction was separated from rabbit and from human blood by the method of Needleman et al. [Needleman et al., Science, 193, 163 (1976)]. The microsomal TXA2 synthetase activity in the presence of various of the compounds of the invention at various concentrations was assayed by a modification of the method of […] et al. [[…] et al., Prostaglandins, 21, 543 (1981)] by incubating the microsome fractions with labelled 1-[^14 C] arachidonic acid at a concentration of 0.1 mM for 1 minute at 22° C., to a final volume of 0.2 ml. The reaction was terminated by the addition of […] of 0.2M citric acid, and then the mixture was extracted with 1.5 ml of ethyl acetate. […] The developing solvent for the chromatography was a 90:8:1:0.8 by volume mixture of chloroform, methanol, acetic acid and water. […] The results are shown in the following Table as the IC50, i.e. the concentration required to inhibit the activity of thromboxane synthetase by 50%. […] The compounds of the invention are identified in the following Tables by the numbers heretofore assigned to them. All compounds were employed in the form of the hydrochloride, except Compound No. 40, which was employed as the free base. The results using rabbit platelet microsomes are given in Table 4, whilst the results using human platelet microsomes are given in Table 5.

TXA2 synthetase [2] = biological target: T2, TXA2 synthetase (Homo sapiens, UniProt P24557); test: Inhibition of Thromboxane A2 Synthetase (human platelet microsomes); type: biochemical; conditions: 0.1 mM [14C] arachidonic acid, 1 minute, 22° C., compounds as hydrochloride
T2 construct: The platelet microsome fraction was separated from rabbit and from human blood; from tissue; host or cells: human blood platelets, microsome fraction
T2 sequence (P24557 1-533): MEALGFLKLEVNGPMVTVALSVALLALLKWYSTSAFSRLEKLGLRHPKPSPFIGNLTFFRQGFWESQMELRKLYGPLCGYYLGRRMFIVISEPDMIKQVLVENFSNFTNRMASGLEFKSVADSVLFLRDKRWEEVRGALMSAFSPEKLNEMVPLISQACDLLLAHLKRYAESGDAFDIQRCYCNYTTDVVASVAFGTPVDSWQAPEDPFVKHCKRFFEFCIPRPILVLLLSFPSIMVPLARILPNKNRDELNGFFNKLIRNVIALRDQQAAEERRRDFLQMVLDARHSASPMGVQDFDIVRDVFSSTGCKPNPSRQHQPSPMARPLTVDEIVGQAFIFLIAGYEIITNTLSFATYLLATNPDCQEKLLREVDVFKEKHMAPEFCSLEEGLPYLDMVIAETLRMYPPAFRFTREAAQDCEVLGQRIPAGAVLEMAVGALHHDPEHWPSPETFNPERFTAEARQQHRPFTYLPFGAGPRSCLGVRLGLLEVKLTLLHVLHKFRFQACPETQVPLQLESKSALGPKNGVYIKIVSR
Method: The platelet microsome fraction was separated from rabbit and from human blood by the method of Needleman et al. [Needleman et al., Science, 193, 163 (1976)]. The microsomal TXA2 synthetase activity in the presence of various of the compounds of the invention at various concentrations was assayed by a modification of the method of […] et al. [[…] et al., Prostaglandins, 21, 543 (1981)] by incubating the microsome fractions with labelled 1-[^14 C] arachidonic acid at a concentration of 0.1 mM for 1 minute at 22° C., to a final volume of 0.2 ml. The reaction was terminated by the addition of […] of 0.2M citric acid, and then the mixture was extracted with 1.5 ml of ethyl acetate. […] The developing solvent for the chromatography was a 90:8:1:0.8 by volume mixture of chloroform, methanol, acetic acid and water.

[3] = tested on: pulmonary thromboembolisms caused by the intravenous injection of arachidonic acid; test: Antithrombotic Activity in Rabbits (arachidonic acid i.v. sudden death); type: in vivo, male Japanese white rabbits; conditions: Oryctolagus cuniculus; oral, 1 hour before 1.3 mg/kg i.v. arachidonic acid; sudden deaths; Probit's method
Method: This test was carried out by a modification of the method of Silver et al. [Science, 183, 1085 (1974)]. The test animals used were male Japanese white rabbits of approximately 3 kg bodyweight.
Each group of rabbits was administered orally the test compound at an appropriate dose and then, one hour after the oral administration, each was given 1.3 mg/kg or arachidonic acid by intravenous injection. The test animals were observed and sudden deaths during the test period were recorded. The ED50 was determined by Probit's method.
Unmedicated rabbits were employed as a control, without administering any test compound, but these were all dead within several minutes after the injection of arachidonic acid, as a result of pulmonary thromboembolisms.

SMILES | IC50 (TXA2 synthetase [1]) [nM] | further results
Cn1ccnc1 [1-methylimidazole] |  | inhibitory effect on the synthesis of TXA2 (synthesis of TXA2): some inhibitory effect
O=C(O)c1ccc(SC(Cn2ccnc2)c2ccccc2)cc1 (stereo not drawn) [Compound 40, 4-[1-Phenyl-2-(imidazol-1-yl)ethylthio]benzoic acid] | 71 | 
O=C(O)c1ccc(SC(Cn2ccnc2)c2ccc(Cl)cc2Cl)cc1 (stereo not drawn) [Compound 44, 4-[1-(2,4-Dichlorophenyl)-2-(imidazol-1-yl)ethylthio]-benzoic acid hydrochloride] | 47 | 
O=C(O)c1ccc(SC(Cn2ccnc2)c2ccccc2Cl)cc1 (stereo not drawn) [Compound 49, 4-[1-(2-Chlorophenyl)-2-(imidazol-1-yl)ethylthio]benzoic acid hydrochloride] | 81 | 
Cc1ccccc1C(Cn1ccnc1)Sc1ccc(C(=O)O)cc1 (stereo not drawn) [Compound 58, 4-[1-(2-Methylphenyl)-2-(imidazol-1-yl)ethylthio]benzoic acid hydrochloride] | 67 | IC50 (TXA2 synthetase [2]): 52 nM
Cc1cc(C)c(C(Cn2ccnc2)Sc2ccc(C(=O)O)cc2)c(C)c1 (stereo not drawn) [Compound 62, 4-[1-(2,4,6-Trimethylphenyl)-2-(imidazol-1-yl)ethylthio]benzoic acid hydrochloride] | 69 | 
COc1ccccc1C(Cn1ccnc1)Sc1ccc(C(=O)O)cc1.Cl (stereo not drawn) [Compound 70, 4-[1-(2-Methoxyphenyl)-2-(imidazol-1-yl)ethylthio]benzoic acid hydrochloride] | 59 | IC50 (TXA2 synthetase [2]): 73 nM; ED50 [3]: 0.13 mg/kg
COc1ccc(C(Cn2ccnc2)Sc2ccc(C(=O)O)cc2)c(OC)c1 (stereo not drawn) [Compound 74, 4-[1-(2,4-Dimethoxyphenyl)-2-(imidazol-1-yl)ethylthio]benzoic acid hydrochloride] | 40 | 
COc1cccc(OC)c1C(Cn1ccnc1)Sc1ccc(C(=O)O)cc1 (stereo not drawn) [Compound 79, 4-[1-(2,6-Dimethoxyphenyl)-2-imidazol-1-yl)ethylthio]benzoic acid hydrochloride] | 57 | 
COc1cc(OC)c(C(Cn2ccnc2)Sc2ccc(C(=O)O)cc2)c(OC)c1 (stereo not drawn) [Compound 84, 4-[1-(2,4,6-Trimethoxyphenyl)-2-(imidazol-1-yl)ethylthio]benzoic acid hydrochloride] | 33 | 
Cl.O=C(O)c1ccc(OCCn2ccnc2)cc1 [Dazoxiben, 4-[2-(1-imidazolyl)ethoxy]benzoic acid hydrochloride, reference compound] |  | ED50 [3]: 1.1 mg/kg
c1c[nH]cn1 [imidazole] |  | inhibitory effect on the synthesis of TXA2 (synthesis of TXA2): some inhibitory effect
